From ChEMBL document CHEMBL2429773, “Synthesis and antiseizure evaluation of isoindoline-1,3-dione derivatives in mice” (Med Chem Res, 2013)

Columns and labels:
Mus musculus [1] = test: Anticonvulsant activity in albino mouse assessed as protection against subcutaneous pentylenetetrazole-induced death measured as mortality at 300 mg/kg, ip after 0.5 hr; type: functional; conditions: sc, route intraperitoneal
Mus musculus [2] = test: Anticonvulsant activity in albino mouse assessed as protection against subcutaneous pentylenetetrazole-induced death measured as mortality at 100 mg/kg, ip after 0.5 hr; type: functional; conditions: sc, route intraperitoneal
Mus musculus [3] = test: Anticonvulsant activity in albino mouse assessed as protection against subcutaneous pentylenetetrazole-induced death measured as mortality at 30 mg/kg, ip after 0.5 hr; type: functional; conditions: sc, route intraperitoneal
Mus musculus [4] = test: Anticonvulsant activity against subcutaneous pentylenetetrazole-induced seizures in albino mouse assessed as seizure at 100 mg/kg, ip after 0.5 hr; type: functional; conditions: route intraperitoneal
Mus musculus [5] = test: Anticonvulsant activity against subcutaneous pentylenetetrazole-induced seizures in albino mouse assessed as onset of seizure time at 300 mg/kg, ip after 0.5 hr; type: functional; conditions: route intraperitoneal
Mus musculus [6] = test: Anticonvulsant activity against subcutaneous pentylenetetrazole-induced seizures in albino mouse assessed as onset of seizure time at 100 mg/kg, ip after 0.5 hr; type: functional; conditions: route intraperitoneal
Mus musculus [7] = test: Anticonvulsant activity against subcutaneous pentylenetetrazole-induced seizures in albino mouse assessed as onset of seizure time at 30 mg/kg, ip after 0.5 hr; type: functional; conditions: route intraperitoneal
Mus musculus [8] = test: Anticonvulsant activity against subcutaneous pentylenetetrazole-induced seizures in albino mouse assessed as duration of seizure time at 300 mg/kg, ip after 0.5 hr; type: functional; conditions: route intraperitoneal
Mus musculus [9] = test: Anticonvulsant activity against subcutaneous pentylenetetrazole-induced seizures in albino mouse assessed as duration of seizure time at 100 mg/kg, ip after 0.5 hr; type: functional; conditions: route intraperitoneal
Mus musculus [10] = test: Anticonvulsant activity against subcutaneous pentylenetetrazole-induced seizures in albino mouse assessed as duration of seizure time at 30 mg/kg, ip after 0.5 hr; type: functional; conditions: route intraperitoneal
Mus musculus [11] = test: Anticonvulsant activity in ip dosed albino mouse assessed as protection against maximal electroshock-induced seizures after 0.5 hr; type: functional
Mus musculus [12] = test: Anticonvulsant activity against maximal electroshock-induced seizure in albino mouse assessed as seizures at 300 mg/kg, ip after 0.5 hr; type: functional; conditions: route intraperitoneal
Mus musculus [13] = test: Anticonvulsant activity against maximal electroshock-induced seizures in albino mouse assessed as seizure at 100 mg/kg, ip after 0.5 hr; type: functional; conditions: route intraperitoneal
Mus musculus [14] = test: Anticonvulsant activity against maximal electroshock-induced seizures in albino mouse assessed as seizure at 30 mg/kg, ip after 0.5 hr; type: functional; conditions: route intraperitoneal
[15] = Neurotoxicity in ip dosed albino mouse measured after 30 mins by rotarod method; type: toxicity, organism-based; conditions: in vivo
Mus musculus [16] = test: Protective index, ratio of TD50 for neurotoxicity in ip dosed albino mouse to ED50 for anticonvulsant activity in ip dosed albino mouse; type: functional

In the case of `COc1cccc(N2C(=O)c3ccccc3C2=O)c1`, the mortality at 300 mg/kg (Mus musculus [1]) is reported as 25%, the mortality at 100 mg/kg (Mus musculus [2]) is reported as 75% and the mortality at 30 mg/kg (Mus musculus [3]) is reported as 100%. The Activity (Mus musculus [4]) was 100%, the Time (Mus musculus [5]) was 10.25 min and the Time (Mus musculus [6]) was 7.25 min. The Time (Mus musculus [7]) was 3 min, the Time (Mus musculus [8]) was 22.25 min and the Time (Mus musculus [9]) was 18.75 min. For the same compound, the Time (Mus musculus [10]) was 7.25 min, the ED50 (Mus musculus [11]) was > 300 mg/kg and the Activity (Mus musculus [12]) was 75%. For the same compound, the Activity (Mus musculus [13]) was 100% and the Activity (Mus musculus [14]) was 100%.
In the case of `O=C1c2ccccc2C(=O)N1c1ccc(Cl)cc1`, the mortality at 300 mg/kg (Mus musculus [1]) is reported as 75%, the mortality at 100 mg/kg (Mus musculus [2]) is reported as 75% and the mortality at 30 mg/kg (Mus musculus [3]) is reported as 100%. It also gave an Activity (Mus musculus [4]) of 100%, a Time (Mus musculus [5]) of 8.25 min and a Time (Mus musculus [6]) of 3.25 min. It also gave a Time (Mus musculus [7]) of 3 min, a Time (Mus musculus [8]) of 19.25 min and a Time (Mus musculus [9]) of 12.75 min. The Time (Mus musculus [10]) was 10.5 min, the TD50 at 0.5 h [15] was > 300 mg/kg and the “Ratio TD50/ED50” value (Mus musculus [16]) was >5.54. It also gave an ED50 (Mus musculus [11]) of 55 mg/kg, an Activity (Mus musculus [12]) of 25% and an Activity (Mus musculus [13]) of 25%. It also gave an Activity (Mus musculus [14]) of 75%.
With `O=C1c2ccccc2C(=O)N1c1cccc(Cl)c1` the mortality at 300 mg/kg (Mus musculus [1]) was 25%, the mortality at 100 mg/kg (Mus musculus [2]) was 75% and the mortality at 30 mg/kg (Mus musculus [3]) was 100%. For the same compound, the Activity (Mus musculus [4]) was 100%, the Time (Mus musculus [5]) was 4.75 min and the Time (Mus musculus [6]) was 3.75 min. For the same compound, the Time (Mus musculus [7]) was 3.5 min, the Time (Mus musculus [8]) was 9 min and the Time (Mus musculus [9]) was 7 min. For the same compound, the Time (Mus musculus [10]) was 11.25 min, the TD50 at 0.5 h [15] was 300 mg/kg and the “Ratio TD50/ED50” value (Mus musculus [16]) was 1.57. The ED50 (Mus musculus [11]) was 190 mg/kg, the Activity (Mus musculus [12]) was 25% and the Activity (Mus musculus [13]) was 100%. The Activity (Mus musculus [14]) was 100%.
`COc1ccc(N2C(=O)c3ccccc3C2=O)cc1` showed a mortality at 300 mg/kg (Mus musculus [1]) of 0%, a mortality at 100 mg/kg (Mus musculus [2]) of 100% and a mortality at 30 mg/kg (Mus musculus [3]) of 100%. The Activity (Mus musculus [4]) was 100%, the Time (Mus musculus [5]) was 13.5 min and the Time (Mus musculus [6]) was 5.25 min. The Time (Mus musculus [7]) was 3 min, the Time (Mus musculus [8]) was 23.75 min and the Time (Mus musculus [9]) was 22.25 min. The Time (Mus musculus [10]) was 11.75 min, the TD50 at 0.5 h [15] was 89.3 mg/kg and the “Ratio TD50/ED50” value (Mus musculus [16]) was 5.91. For the same compound, the ED50 (Mus musculus [11]) was 15.1 mg/kg, the Activity (Mus musculus [12]) was 0% and the Activity (Mus musculus [13]) was 25%. It also gave an Activity (Mus musculus [14]) of 25%.
In the case of `O=C1c2ccccc2C(=O)N1c1ccccc1Cl`, the mortality at 300 mg/kg (Mus musculus [1]) is reported as 100%, the mortality at 100 mg/kg (Mus musculus [2]) is reported as 75% and the mortality at 30 mg/kg (Mus musculus [3]) is reported as 100%. It also gave an Activity (Mus musculus [4]) of 100%, a Time (Mus musculus [5]) of 9.5 min and a Time (Mus musculus [6]) of 6.5 min. The Time (Mus musculus [7]) was 1.5 min, the Time (Mus musculus [8]) was 24.5 min and the Time (Mus musculus [9]) was 14.25 min. For the same compound, the Time (Mus musculus [10]) was 8.25 min, the ED50 (Mus musculus [11]) was 168 mg/kg and the Activity (Mus musculus [12]) was 25%. For the same compound, the Activity (Mus musculus [13]) was 75% and the Activity (Mus musculus [14]) was 100%.
Compound `O=C1c2ccccc2C(=O)N1c1ccccc1F` has a mortality at 300 mg/kg (Mus musculus [1]) of 75%, a mortality at 100 mg/kg (Mus musculus [2]) of 100% and a mortality at 30 mg/kg (Mus musculus [3]) of 100%. It also gave an Activity (Mus musculus [4]) of 100%, a Time (Mus musculus [5]) of 4.75 min and a Time (Mus musculus [6]) of 5 min. The Time (Mus musculus [7]) was 2 min, the Time (Mus musculus [8]) was 12 min and the Time (Mus musculus [9]) was 9 min. For the same compound, the Time (Mus musculus [10]) was 5.5 min, the TD50 at 0.5 h [15] was 233 mg/kg and the “Ratio TD50/ED50” value (Mus musculus [16]) was <0.77. The ED50 (Mus musculus [11]) was > 300 mg/kg, the Activity (Mus musculus [12]) was 0% and the Activity (Mus musculus [13]) was 75%. It also gave an Activity (Mus musculus [14]) of 100%.
For `O=C1c2ccccc2C(=O)N1c1cccc(F)c1`, the mortality at 300 mg/kg (Mus musculus [1]) was 75%, the mortality at 100 mg/kg (Mus musculus [2]) was 100% and the mortality at 30 mg/kg (Mus musculus [3]) was 100%. The Activity (Mus musculus [4]) was 100%, the Time (Mus musculus [5]) was 4.75 min and the Time (Mus musculus [6]) was 4 min. For the same compound, the Time (Mus musculus [7]) was 5 min, the Time (Mus musculus [8]) was 14 min and the Time (Mus musculus [9]) was 11 min. The Time (Mus musculus [10]) was 10.5 min, the TD50 at 0.5 h [15] was 31.7 mg/kg and the “Ratio TD50/ED50” value (Mus musculus [16]) was 0.79. It also gave an ED50 (Mus musculus [11]) of 39.7 mg/kg, an Activity (Mus musculus [12]) of 25% and an Activity (Mus musculus [13]) of 0%. It also gave an Activity (Mus musculus [14]) of 100%.
